# Measurements reported in patent publication US20200333324A1, “METHOD OF PREDICTING CLINICAL OUTCOME OF ANTICANCER AGENTS” (MITRA RXDX, INC., priority 2017, published 2020).
# Columns and labels:
# Type in all cases: cell-based, human
# PBNCs = test: FACS analysis for CD25, CD127 and FOXP3 expression, PBNCs
# Procedure: (§1) The effect of treatment with Nivolumab and Pembrolizumab on CD25, CD127, and FOXP3 expression was then evaluated. Tumor sections or PBNCs from the same patient cultured for 3 days in the tumor microenvironment platform were treated with Pembrolizumab, Nivolumab, or IgG control for one day followed by FACS analysis for expression of CD25, CD127, and FOXP3.
# Tumor sections = test: FACS analysis for CD25, CD127 and FOXP3 expression, tumor sections
# Procedure: as §1
# HNSCC tumor tissue = test: IHC for CD8, PD-L1, PD-1 and FOXP3 positive cells in tumor microenvironment platform; details: T3; for number of PD-1^+ cells in the tumor microbed: vs IgG control
# Procedure: The effect of Pembrolizumab and Nivolumab on CD8^+ T cell tumor infiltration was then evaluated. Tumor sections from the same patient cultured for 72 hours in the tumor microenvironment platform were treated with Pembrolizumab, Nivolumab, or IgG as control and stained for H&E, Ki67, Caspase 3, and CD8 at day 3 in culture (T3). Baseline staining was determined at TO. […] To further elucidate the effects of the anti-PD-1 antibodies, FACS analysis was performed on tumor tissue from patient 2941 and patient 2942 treated with either Pembrolizumab, Nivolumab, or IgG control. […] By contrast, there was no effect of either Pembrolizumab or Nivolumab on CD8^+ T cell infiltration for patient 2942, further highlighting the differential response between individuals to PD-1 blockade. CD8^+ T cell infiltration was evaluated in the tumor microenvironment platform with tumor tissue from the same patient, and comparisons for control vs Nivo, control vs Pembro, Nivo vs Pembro, and control vs Nivo vs Pembro for multiple patients are shown in FIG. 6 (each line represents results from the tumor microenvironment platform cultured with tumor tissue from a single individual).
# The effect of Pembrolizumab and Nivolumab on the expression of immunoregulatory molecules, including PD-1 and FOXP3, in the tumor microenvironment platform tumor microbed was evaluated. Tumor sections from the same patient cultured for 3 days (72 hours) in the tumor microenvironment platform were treated with Pembrolizumab, Nivolumab, or IgG control and stained for CD8, FOXP3, and PD-1 at day 3 in culture (T3). Baseline staining was determined at TO. Results are shown in FIG. 7A for tumor sections from a predicted responder to Pembrolizumab or Nivolumab and FIG. 7B for a predicted non-responder to Pembrolizumab or Nivolumab, as characterized by M-score. There was in increase in the number of PD-1^+ cells in the tumor microbed for both Pembrolizumab and Nivolumab, which was to a greater degree in the case of Nivolumab, when compared to IgG control in the responder (FIG. 7A). There was no change for either Pembrolizumab and Nivolumab in the non-responder (FIG. 7B). The numbers of PD-L1^+ tumor cells, PD-1^+ T cells, FOXP3^+ T-regulatory cells, and CD8^+ T cells were evaluated using the tumor microenvironment platform with tumor tissue from the same patient in Nivolumab, Pembrolizumab, and control conditions, and are summarized in Table 3. Comparisons for control vs Nivo, control vs Pembro, Nivo vs Pembro, and control vs Nivo vs Pembro for multiple patients are shown in FIG. 8 (each line represents results from the tumor microenvironment platform cultured with tumor tissue from a single individual).
substance,measurement,setting,value
Pembrolizumab,CD25^+/FOXP3^− PBMCs (% total cells),"PBNCs; Non-Responder, control 3.67",2.8 % total cells
same,CD25^+/CD127^+ PBMCs (% total cells),"PBNCs; Non-Responder, control 14.6",25.6 % total cells
same,CD25^+/CD127^− PBMCs (% total cells),"PBNCs; Non-Responder, control 15.1",7.71 % total cells
same,CD25^−/FOXP3^− PBMCs (% total cells),"PBNCs; Non-Responder, control 18.2",10.9 % total cells
same,CD25^+/FOXP3^+ PBMCs (% total cells),"PBNCs; Non-Responder, control 22.1",29.1 % total cells
same,CD25^−/CD127^+ PBMCs (% total cells),"PBNCs; Non-Responder, control 26.2",45.3 % total cells
same,CD25^−/CD127^− PBMCs (% total cells),"PBNCs; Non-Responder, control 44.1",21.4 % total cells
same,CD25^− FOXP3^+ PBMCs (% total cells),"PBNCs; Non-Responder, control 56.0",57.2 % total cells
same,CD25^+/FOXP3^− PBMCs (% total cells),"PBNCs; Responder, control 3.04",3.94 % total cells
same,CD25^+/CD127^− PBMCs (% total cells),"PBNCs; Responder, control 11.7",7.77 % total cells
same,CD25^+/CD127^+ PBMCs (% total cells),"PBNCs; Responder, control 16.8",20.4 % total cells
same,CD25^+/FOXP3^+ PBMCs (% total cells),"PBNCs; Responder, control 21.7",22.1 % total cells
same,CD25^−/FOXP3^− PBMCs (% total cells),"PBNCs; Responder, control 23.2",20.0 % total cells
same,CD25^−/CD127^+ PBMCs (% total cells),"PBNCs; Responder, control 24.8",46.4 % total cells
same,CD25^−/CD127^− PBMCs (% total cells),"PBNCs; Responder, control 46.6",25.4 % total cells
same,CD25^− FOXP3^+ PBMCs (% total cells),"PBNCs; Responder, control 52.1",54.0 % total cells
same,CD25^+/FOXP3^− Tumor (% total cells),"Tumor sections; Non-Responder, control 6.52",5.03 % total cells
same,CD25^+/CD127^+ Tumor (% total cells),"Tumor sections; Non-Responder, control 19.6",17.8 % total cells
same,CD25^−/CD127^− Tumor (% total cells),"Tumor sections; Non-Responder, control 22.1",24.9 % total cells
same,CD25^−/FOXP3^− Tumor (% total cells),"Tumor sections; Non-Responder, control 23.6",10.7 % total cells
same,CD25^+/CD127^− Tumor (% total cells),"Tumor sections; Non-Responder, control 25.4",24.3 % total cells
same,CD25^−/CD127^+ Tumor (% total cells),"Tumor sections; Non-Responder, control 33.0",32.9 % total cells
same,CD25^+/FOXP3^+ Tumor (% total cells),"Tumor sections; Non-Responder, control 34.4",35.8 % total cells
same,CD25^− FOXP3^+ Tumor (% total cells),"Tumor sections; Non-Responder, control 35.5",48.4 % total cells
same,CD25^−/CD127^− Tumor (% total cells),"Tumor sections; Responder, control 12.2",18.4 % total cells
same,CD25^− FOXP3^+ Tumor (% total cells),"Tumor sections; Responder, control 18.9",42.5 % total cells
same,CD25^−/FOXP3^− Tumor (% total cells),"Tumor sections; Responder, control 20.3",6.67 % total cells
same,CD25^+/CD127^− Tumor (% total cells),"Tumor sections; Responder, control 23.0",17.7 % total cells
same,CD25^−/CD127^+ Tumor (% total cells),"Tumor sections; Responder, control 24.3",31.2 % total cells
same,CD25^+/FOXP3^− Tumor (% total cells),"Tumor sections; Responder, control 25.7",5.83 % total cells
same,CD25^+/FOXP3^+ Tumor (% total cells),"Tumor sections; Responder, control 35.1",45.0 % total cells
same,CD25^+/CD127^+ Tumor (% total cells),"Tumor sections; Responder, control 40.5",32.6 % total cells
same,"functional Treg cells (CD25, CD127, FOXP3 FACS)",Tumor sections; platform containing tumor tissue,patient sample-dependent functional Treg cell depression
same,# cells/field PD-1^+,"HNSCC tumor tissue; Patient ID 2916, control 0",0 cells/field
same,# cells/field PD-L1^+,"HNSCC tumor tissue; Patient ID 2916, control 1",2 cells/field
same,# cells/field FOXP3^+,"HNSCC tumor tissue; Patient ID 2916, control 3",2 cells/field
same,# cells/field CD8^+,"HNSCC tumor tissue; Patient ID 2916, control 20",18 cells/field
same,# cells/field PD-1^+,"HNSCC tumor tissue; Patient ID 2918, control 2",0 cells/field
same,# cells/field FOXP3^+,"HNSCC tumor tissue; Patient ID 2918, control 3",3 cells/field
same,# cells/field CD8^+,"HNSCC tumor tissue; Patient ID 2918, control 10",14 cells/field
same,# cells/field PD-L1^+,"HNSCC tumor tissue; Patient ID 2918, control 10",10 cells/field
same,# cells/field PD-1^+,"HNSCC tumor tissue; Patient ID 2926, control 0",0 cells/field
same,# cells/field PD-L1^+,"HNSCC tumor tissue; Patient ID 2926, control 3",1 cells/field
same,# cells/field FOXP3^+,"HNSCC tumor tissue; Patient ID 2926, control 4",10 cells/field
same,# cells/field CD8^+,"HNSCC tumor tissue; Patient ID 2926, control 25",5 cells/field
same,# cells/field PD-1^+,"HNSCC tumor tissue; Patient ID 2928, control 0",0 cells/field
same,# cells/field PD-L1^+,"HNSCC tumor tissue; Patient ID 2928, control 0",1 cells/field
same,# cells/field CD8^+,"HNSCC tumor tissue; Patient ID 2928, control 4",1 cells/field
same,# cells/field FOXP3^+,"HNSCC tumor tissue; Patient ID 2928, control 4",1 cells/field
same,# cells/field CD8^+,"HNSCC tumor tissue; Patient ID 2939, control 0",5 cells/field
same,# cells/field PD-1^+,"HNSCC tumor tissue; Patient ID 2939, control 0",0 cells/field
same,# cells/field FOXP3^+,"HNSCC tumor tissue; Patient ID 2939, control 1",1 cells/field
same,# cells/field PD-L1^+,"HNSCC tumor tissue; Patient ID 2939, control 10",15 cells/field
same,# cells/field PD-1^+,"HNSCC tumor tissue; Patient ID 2941, control 0",1 cells/field
same,# cells/field FOXP3^+,"HNSCC tumor tissue; Patient ID 2941, control 3",4 cells/field
same,# cells/field PD-L1^+,"HNSCC tumor tissue; Patient ID 2941, control 3",6 cells/field
same,# cells/field CD8^+,"HNSCC tumor tissue; Patient ID 2941, control 5",7 cells/field
same,# cells/field PD-1^+,"HNSCC tumor tissue; Patient ID 2942, control 0",0 cells/field
same,# cells/field PD-L1^+,"HNSCC tumor tissue; Patient ID 2942, control 0",0 cells/field
same,# cells/field CD8^+,"HNSCC tumor tissue; Patient ID 2942, control 3",2 cells/field
same,# cells/field FOXP3^+,"HNSCC tumor tissue; Patient ID 2942, control 3",2 cells/field
same,# cells/field FOXP3^+,"HNSCC tumor tissue; Patient ID 2948, control 1",3 cells/field
same,# cells/field PD-1^+,"HNSCC tumor tissue; Patient ID 2948, control 1",0 cells/field
same,# cells/field PD-L1^+,"HNSCC tumor tissue; Patient ID 2948, control 10",1 cells/field
same,# cells/field CD8^+,"HNSCC tumor tissue; Patient ID 2948, control 20",25 cells/field
same,# cells/field PD-1^+,"HNSCC tumor tissue; Patient ID 2949, control 1",6 cells/field
same,# cells/field FOXP3^+,"HNSCC tumor tissue; Patient ID 2949, control 5",3 cells/field
same,# cells/field PD-L1^+,"HNSCC tumor tissue; Patient ID 2949, control 20",28 cells/field
same,# cells/field CD8^+,"HNSCC tumor tissue; Patient ID 2949, control 50",40 cells/field
same,# cells/field PD-1^+,"HNSCC tumor tissue; Patient ID 2956, control 0",0 cells/field
same,# cells/field CD8^+,"HNSCC tumor tissue; Patient ID 2956, control 1",1 cells/field
same,# cells/field PD-L1^+,"HNSCC tumor tissue; Patient ID 2956, control 2",0 cells/field
same,# cells/field FOXP3^+,"HNSCC tumor tissue; Patient ID 2956, control 8",1 cells/field
same,# cells/field PD-1^+,"HNSCC tumor tissue; Patient ID 2963, control 0",0 cells/field
same,# cells/field CD8^+,"HNSCC tumor tissue; Patient ID 2963, control 6",2 cells/field
same,# cells/field FOXP3^+,"HNSCC tumor tissue; Patient ID 2963, control 10",2 cells/field
same,# cells/field PD-L1^+,"HNSCC tumor tissue; Patient ID 2963, control 12",10 cells/field
same,# cells/field PD-1^+,"HNSCC tumor tissue; Patient ID 2978, control 0",0 cells/field
same,# cells/field FOXP3^+,"HNSCC tumor tissue; Patient ID 2978, control 1",2 cells/field
same,# cells/field PD-L1^+,"HNSCC tumor tissue; Patient ID 2978, control 1",1 cells/field
same,# cells/field CD8^+,"HNSCC tumor tissue; Patient ID 2978, control 12",22 cells/field
same,# cells/field PD-1^+,"HNSCC tumor tissue; Patient ID 2979, control 0",0 cells/field
same,# cells/field FOXP3^+,"HNSCC tumor tissue; Patient ID 2979, control 2",3 cells/field
same,# cells/field PD-L1^+,"HNSCC tumor tissue; Patient ID 2979, control 5",8 cells/field
same,# cells/field CD8^+,"HNSCC tumor tissue; Patient ID 2979, control 25",10 cells/field
same,# cells/field PD-1^+,"HNSCC tumor tissue; Patient ID 2980, control 0",0 cells/field
same,# cells/field FOXP3^+,"HNSCC tumor tissue; Patient ID 2980, control 1",2 cells/field
same,# cells/field PD-L1^+,"HNSCC tumor tissue; Patient ID 2980, control 8",2 cells/field
same,# cells/field CD8^+,"HNSCC tumor tissue; Patient ID 2980, control 30",8 cells/field
same,# cells/field FOXP3^+,"HNSCC tumor tissue; Patient ID 2981, control 0",1 cells/field
same,# cells/field PD-1^+,"HNSCC tumor tissue; Patient ID 2981, control 0",0 cells/field
same,# cells/field PD-L1^+,"HNSCC tumor tissue; Patient ID 2981, control 0",0 cells/field
same,# cells/field CD8^+,"HNSCC tumor tissue; Patient ID 2981, control 1",12 cells/field
same,number of PD-1^+ cells in the tumor microbed,HNSCC tumor tissue; predicted non-responder,no change
same,number of PD-1^+ cells in the tumor microbed,"HNSCC tumor tissue; predicted responder, to a greater degree in the case of Nivolumab",increase
